Our source for the TGI values is PubChem BioAssay (NCI).

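Cells were grown in 96-well plates and exposed to each compound for 48 hours at five concentrations; endpoints were interpolated linearly between bracketing concentrations, or set to the highest concentration if not reached. Definition used: TGI = concentration required for complete inhibition of growth.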

Test in all cases: DTP human tumour cell line panel, 48 h
The subject of test [1] is 786-0 renal.
The test system of test [2] is DU-145 prostate.
The subject of test [3] is HOP-62 NSCLC.
For test [4], the system named is KM12 colon.
The test system of test [5] is M14 melanoma.
For test [6], the system named is MDA-MB-231 breast.
In test [7] the test system is MDA-N.
The test system of test [8] is NCI-H23 lung.
For test [9], the system named is NCI-H522 lung.
The test system of test [10] is OVCAR-4 ovarian.
For test [11], the system named is PC-3 prostate.
Test [12] has as its system RPMI-8226 leukemia.
Test [13] deals with SF-295 CNS.
For test [14], the system named is SK-MEL-2 melanoma.
Test [15] concerns SN12C renal.
Test [16] has as its system SR leukemia.
The test system of test [17] is T-47D breast.
The subject of test [18] is UACC-257 melanoma.
Test [19] relates to UACC-62 melanoma.
Test [20] concerns UO-31 renal.

On to `COC(=O)c1cc(C#N)[nH]c1-c1ccc(Br)s1`, for which the TGI (as a rule, the concentration at which net growth stops) in test [1] was 27.7 µM; in [2] it was 31.6 µM; in test [3] it was 21.4 µM; in [4], over 50 µM; in test [5] it was 22.9 µM; in [6] it was 30.7 µM. Moreover, the TGI in [7] was 27.9 µM; in test [8], 18.9 µM; in test [9], 19.6 µM; in test [10] it was 36.7 µM; in test [11], 13.4 µM; in [12] it was over 73.3 µM. Also, the TGI is 21.1 µM in test [13]; 18.6 µM in test [14]; 26 µM in test [15]; over 51.9 µM in [16]; 17.2 µM in test [17]; 24.9 µM in [18]. Also, the TGI in test [19] came out at 26 µM; in test [20], 15.6 µM.
In the case of `CN1CCOC1(C)c1ccccc1` (stereo not given), the TGI in [1], in test [2], in [3], in test [4], in test [5] and in test [6] was over 100 µM throughout. The TGI in test [7], in [8], in test [9], in test [10], in [11] and in [12] was over 100 µM throughout. In addition, the TGI in [13], in test [14], in test [15], in [16], in test [17] and in test [18] was over 100 µM throughout. In addition, the TGI in test [19] and in test [20] was over 100 µM in each case.
For the compound `COc1ccc(/C(=N/Nc2nc3ccccc3n2Cc2ccccc2)C(=O)O)cc1`, the TGI was 42.3 µM in test [1]; over 100 µM in test [2]; over 100 µM in test [3]; over 100 µM in test [4]; 38.9 µM in test [5]; 80.2 µM in test [6]. The TGI was over 100 µM in test [7]; 43.3 µM in test [8]; 68.8 µM in test [9]; 62.2 µM in [10]; over 100 µM in test [11]; 55.8 µM in [12]. The TGI is over 100 µM in test [13]; over 100 µM in [14]; over 100 µM in test [15]; 9.88 µM in test [16]; 70.7 µM in test [17]; over 100 µM in test [18]. Besides, the TGI in test [19] was found to be 21.4 µM; in [20], 76.5 µM.
Regarding `Cc1ccc(S(=O)(=O)NC(=O)NC(CCCCN)C(=O)O)cc1` (stereo not given), the TGI in test [1], in test [2], in test [3], in test [4], in [5] and in test [6] was over 100 µM each time. The TGI in test [7], in test [8], in [9], in [10], in test [11] and in test [12] was over 100 µM throughout. The TGI in test [13], in test [14], in test [15], in [16], in test [17] and in test [18] was over 100 µM throughout. Besides, the TGI in test [19] and in test [20] was over 100 µM in each case.
On to `O=c1c2c3c(sc2nc2n1sc1nc4sc5c(c4c(=O)n12)CCCC5)CCCC3`, for which the TGI was 31 µM in [1]; over 74.3 µM in test [2]; over 100 µM in test [3]; over 100 µM in test [4]; over 100 µM in test [5]; over 69.5 µM in [6]. In addition, the TGI in test [7] is 97.4 µM; in test [8], 79.7 µM; in test [9], 31.1 µM; in [10], 37.2 µM; in [11], over 100 µM; in test [12] it was over 63.2 µM. Besides, the concentration for total growth inhibition (TGI) in test [13] is over 100 µM; in [14] it was over 100 µM; in [15], over 100 µM; in test [16], over 84.9 µM; in [17] it was 17.1 µM; in test [18], over 100 µM. Further, the TGI is over 100 µM in test [19] and 43.9 µM in test [20].
For `C=C(CN(C)C)C(=O)c1ccccc1`, the TGI was 13.5 µM in [1]; 30.2 µM in test [2]; over 58.3 µM in test [3]; 42.2 µM in test [4]; 7.54 µM in test [5]; 31.4 µM in test [6]. Besides, the TGI in test [7] was 28.1 µM; in test [8], 45 µM; in [9] it was 1.69 µM; in test [10] it was 39.3 µM; in test [11], 30.6 µM; in [12], over 66.3 µM. For the same compound, the TGI in test [13] is 47.4 µM; in test [14], 32.9 µM; in test [15] it was 38.7 µM; in test [16] it was over 60.5 µM; in test [17] it was 4.93 µM; in test [18], 27.6 µM. Also, the TGI in test [19] came out at 30.1 µM; in test [20], 19.2 µM.
For `NC(=S)NN=Cc1ccccc1OCc1cccc(COc2ccccc2C=NNC(N)=S)n1`, the TGI in [1] is over 72 µM; in test [2], over 45.6 µM; in test [3] it was 35.3 µM; in [4], over 100 µM; in test [5], over 100 µM; in test [6] it was 22.3 µM. The TGI in test [7], in [8], in test [9], in [10], in test [11] and in test [12] was over 100 µM in each case. Also, the TGI in test [13] was 20 µM; in [14] it was 33.7 µM; in test [15], over 100 µM; in test [16], over 100 µM; in test [17] it was over 100 µM; in test [18], over 100 µM. Further, the TGI in test [19] was over 100 µM; in [20], over 93.5 µM.
